Tests used:
[1] = human, hepatocytes
Description: Apparent intrinsic clearance in human hepatocytes measured per million cells by LC-MS/MS analysis

physchem [2] = assay: physchem
Description: Dissociation constant, pKa of the compound

physchem [3] = settings: octanol/aqueous buffer, pH 7.4
in vitro = settings: dog, MDCK
Description: Apparent permeability in MDCKII-LE cells incubated for 1.5 hrs

[4] = target: T1, Diacylglycerol O-acyltransferase 2 (Homo sapiens, UniProt Q96PD7)
T1 sequence (Q96PD7 whole entry): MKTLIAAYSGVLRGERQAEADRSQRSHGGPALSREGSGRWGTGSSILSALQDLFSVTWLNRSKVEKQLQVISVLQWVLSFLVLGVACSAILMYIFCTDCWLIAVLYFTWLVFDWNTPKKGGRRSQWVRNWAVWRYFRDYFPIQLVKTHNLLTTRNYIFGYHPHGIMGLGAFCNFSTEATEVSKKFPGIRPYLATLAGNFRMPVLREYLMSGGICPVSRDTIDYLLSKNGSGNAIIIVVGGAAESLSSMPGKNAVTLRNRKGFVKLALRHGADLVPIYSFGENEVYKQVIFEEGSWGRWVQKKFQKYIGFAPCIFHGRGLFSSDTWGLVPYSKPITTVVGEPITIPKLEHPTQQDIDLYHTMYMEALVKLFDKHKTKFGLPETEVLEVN
Description: Inhibition of human DGAT2 using 14C decanoyl-CoA as a substrate pre incubated for 2 hrs followed by substrate addition measured after 40 mins by Trilux Microbeta reader analysis

[5] = Oral bioavailability in Wistar Han rat; assay type: ADME, organism-based; settings: in vivo
[6] = Volume of distribution at steady state in Wistar Han rat at 1 mg/kg, iv; assay type: ADME, organism-based; settings: in vivo, read-out: Vdss
[7] = Half life of the compound in Wistar Han rat at 1 mg/kg, iv; assay type: ADME, organism-based; settings: in vivo
[8] = Clearance in Wistar Han rat plasma at 1 mg/kg,iv; assay type: ADME, organism-based
[9] = Renal clearance in Wistar Han rat at 1 mg/kg, iv; assay type: ADME, organism-based; settings: in vivo
[10] = Oral bioavailability in cynomolgus monkey; assay type: ADME, organism-based, Macaca fascicularis; settings: in vivo
[11] = Half life of the compound in po dosed cynomolgus monkey; assay type: ADME, organism-based, Macaca fascicularis; settings: in vivo
[12] = Half life of the compound in Beagle dog plasma at 1 mg/kg, iv; assay type: ADME, organism-based, Canis lupus familiaris
[13] = Half life of the compound in cynomolgus monkey at 1 mg/kg, iv; assay type: ADME, organism-based, Macaca fascicularis; settings: in vivo
[14] = Volume of distribution at steady state in po dosed cynomolgus monkey; assay type: ADME, organism-based, Macaca fascicularis; settings: in vivo
[15] = Volume of distribution at steady state in po dosed Wistar Han rat; assay type: ADME, organism-based; settings: in vivo
[16] = Volume of distribution at steady state in Beagle dog plasma at 1 mg/kg, iv; assay type: ADME, organism-based, Canis lupus familiaris; settings: read-out: Vdss
Rattus norvegicus [17] = assay: Hepatoprotective activity in western diet induced Sprague-Dawley rat model assessed as reduction in plasma triglycerides level at 100 mg/kg, po administered 7 days starting from day 14 post diet followed by single dose administration on day 8 and measured 2 hrs post last dose relative to control; assay type: functional; design: scale not given: the % may be the effect or the level left; settings: time 8 day
[18] = Clearance in po dosed Wistar Han rat; assay type: ADME, organism-based; settings: in vivo
[19] = Clearance in po dosed cynomolgus monkey plasma; assay type: ADME, organism-based, Macaca fascicularis
[20] = Clearance in Beagle dog plasma at 1 mg/kg,iv; assay type: ADME, organism-based, Canis lupus familiaris
[21] = Renal clearance in po dosed Wistar Han rat; assay type: ADME, organism-based; settings: in vivo
[22] = Renal clearance in po dosed cynomolgus monkey; assay type: ADME, organism-based, Macaca fascicularis; settings: in vivo
[23] = Renal clearance in Beagle dog plasma at 1 mg/kg,iv; assay type: ADME, organism-based, Canis lupus familiaris
[24] = target: T2, Diacylglycerol O-acyltransferase 2 (Rattus norvegicus, UniProt Q5FVP8); assay: Inhibition of rat DGAT2 using 14C decanoyl-CoA as a substrate pre incubated for 2 hrs followed by substrate addition measured after 40 mins by Trilux Microbeta reader analysis
T2 sequence (Q5FVP8 whole entry): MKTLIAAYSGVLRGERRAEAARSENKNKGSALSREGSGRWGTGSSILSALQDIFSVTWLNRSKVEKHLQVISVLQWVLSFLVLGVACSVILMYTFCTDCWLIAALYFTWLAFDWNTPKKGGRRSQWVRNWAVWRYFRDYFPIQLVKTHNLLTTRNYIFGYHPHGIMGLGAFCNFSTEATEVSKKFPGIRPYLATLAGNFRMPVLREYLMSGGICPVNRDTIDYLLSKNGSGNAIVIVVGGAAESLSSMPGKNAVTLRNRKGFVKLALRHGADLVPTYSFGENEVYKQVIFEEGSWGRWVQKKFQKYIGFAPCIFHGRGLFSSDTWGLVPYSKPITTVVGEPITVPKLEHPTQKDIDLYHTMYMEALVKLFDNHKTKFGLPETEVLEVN

Rattus norvegicus [25] = assay: Hepatoprotective activity in western diet induced Sprague-Dawley rat model assessed as reduction in liver triglycerides level at 100 mg/kg, po administered 7 days starting from day 14 post diet followed by single dose administration on day 8 and measured 2 hrs post last dose relative to control; assay type: functional; design: scale not given: the % may be the effect or the level left; settings: time 8 day
Rattus norvegicus [26] = assay: Hepatoprotective activity in po dosed western diet induced Sprague-Dawley rat model assessed as reduction in plasma triglycerides level administered 7 days starting from day 14 post diet followed by single dose administration on day 8 and measured 2 hrs post last dose; assay type: functional, organism-based; settings: dose 3-100 mg/kg, time 8.0 day
Rattus norvegicus [27] = assay: Hepatoprotective activity in po dosed western diet induced Sprague-Dawley rat model assessed as reduction in liver triglycerides level administered 7 days starting from day 14 post diet followed by single dose administration on day 8 and measured 2 hrs post last dose; assay type: functional, organism-based; settings: dose 3-100 mg/kg, time 8.0 day
[28] = Apparent intrinsic clearance in human hepatocytes measured per million cells at 1 uM incubated for 4 hrs by relay method; assay type: ADME, cell-based, Hepatocyte
[29] = target: T3, Diacylglycerol O-acyltransferase 1 (Homo sapiens, UniProt O75907); assay: Inhibition of DGAT1 (unknown origin)
T3 sequence (O75907 whole entry): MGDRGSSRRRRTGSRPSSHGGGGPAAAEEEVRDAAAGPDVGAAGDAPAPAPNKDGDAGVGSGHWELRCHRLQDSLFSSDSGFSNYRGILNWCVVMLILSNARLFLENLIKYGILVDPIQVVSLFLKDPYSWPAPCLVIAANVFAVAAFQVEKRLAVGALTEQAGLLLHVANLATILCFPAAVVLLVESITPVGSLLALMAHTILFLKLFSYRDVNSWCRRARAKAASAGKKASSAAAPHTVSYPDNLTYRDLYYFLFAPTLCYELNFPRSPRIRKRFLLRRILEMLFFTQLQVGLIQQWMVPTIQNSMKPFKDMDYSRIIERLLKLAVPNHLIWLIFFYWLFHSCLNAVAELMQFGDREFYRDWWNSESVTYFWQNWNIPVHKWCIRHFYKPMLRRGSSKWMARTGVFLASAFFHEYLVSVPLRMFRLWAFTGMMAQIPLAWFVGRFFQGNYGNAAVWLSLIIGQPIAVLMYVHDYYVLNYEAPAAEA

Rattus norvegicus [30] = assay: Hepatoprotective activity in po dosed high sucrose diet induced Sprague-Dawley rat model assessed as reduction in plasma triglycerides level measured after 2 to 4 hrs post last dose; assay type: functional, organism-based; settings: dose 10-100 mg/kg, time 2-4 hrs
Rattus norvegicus [31] = assay: Hepatoprotective activity in po dosed high sucrose diet induced Sprague-Dawley rat model assessed as reduction in liver triglycerides level measured after 2 to 4 hrs post last dose; assay type: functional, organism-based; settings: dose 10-100 mg/kg, time 2-4 hrs
[32] = Volume of distribution at steady state in cynomolgus monkey at 1 mg/kg, iv; assay type: ADME, organism-based, Macaca fascicularis; settings: in vivo, read-out: Vdss
[33] = Half life of the compound in po dosed Wistar Han rat; assay type: ADME, organism-based; settings: in vivo
[34] = Renal clearance in cynomolgus monkey plasma at 1 mg/kg, iv; assay type: ADME, organism-based, Macaca fascicularis

## CCOc1cccnc1Oc1cncc(-c2ncc(C(=O)N[C@@H]3CNCCC3(F)F)cn2)c1
[1]
  CLH(app): 4.7 µL/min
Physchem [2]
  pKa: 6.4
Physchem [3]
  logD at 1 h: 1.8
In vitro
  Papp at 1.5 h: 18 ×10⁻⁶ cm/s

## CCOc1cccnc1Oc1cncc(-c2ncc(C(=O)N[C@@H]3CNCC[C@@H]3F)cn2)c1
[4]
  IC50: 16 nM
[1]
  CLH(app): < 1.9 µL/min
Physchem [2]
  pKa: 8
Physchem [3]
  logD at 1 h: 0.96
In vitro
  Papp at 1.5 h: 4.7 ×10⁻⁶ cm/s

## CCOc1cccnc1Oc1cncc(-c2ncc(C(=O)N[C@@H]3CNC[C@H](F)C3)cn2)c1 (racemic)
[4]
  IC50: 200 nM
[1]
  CLH(app): 6.6 µL/min
Physchem [2]
  pKa: 6.8
Physchem [3]
  logD at 1 h: 1.7
In vitro
  Papp at 1.5 h: 13 ×10⁻⁶ cm/s

## CCOc1cccnc1Oc1cncc(-c2ncc(C(=O)N[C@@H]3CNCC(F)(F)C3)cn2)c1
[1]
  CLH(app): 9.3 µL/min
Physchem [3]
  logD at 1 h: 2.3
In vitro
  Papp at 1.5 h: 14 ×10⁻⁶ cm/s

## CCOc1cccnc1Oc1cncc(-c2ncc(C(=O)N[C@@H]3CCNC3)cn2)c1
[5]
  bioavailability: < 1%
[4]
  IC50: 410 nM
[6]
  Vd: 4.1 L/kg
[7]
  half-life: 1.9 h
[8]
  clearance: 51 mL/min/kg
[9]
  CL renal: 5.2 mL/min/kg
[1]
  CLH(app): < 3 µL/min
Physchem [2]
  pKa: 9.2
Physchem [3]
  logD at 1 h: -0.15
In vitro
  Papp at 1.5 h: 0.68 ×10⁻⁶ cm/s

## CCOc1cccnc1Oc1cncc(-c2ncc(C(=O)N[C@@H]3CNCC[C@H]3F)cn2)c1
[1]
  CLH(app): < 1.9 µL/min
Physchem [3]
  logD at 1 h: 1.4
In vitro
  Papp at 1.5 h: 8.8 ×10⁻⁶ cm/s

## CCOc1cccnc1Oc1cncc(-c2ncc(C(=O)N[C@@H]3CNC[C@@H](F)C3)cn2)c1
[10]
  bioavailability: 21%
[5]
  bioavailability: 12%
[11]
  half-life: 6.5 h
[12]
  half-life: 1.5 h
[13]
  half-life: 1.4 h
[14]
  Vdss: 1.6 L/kg
[15]
  Vdss: 2.7 L/kg
[16]
  Vd: 2.1 L/kg
Rattus norvegicus [17]
  Activity: 71%
[7]
  half-life: 0.9 h
[18]
  CL/F: 64 mL/min/kg
[19]
  CL/F: 17 mL/min/kg
[20]
  clearance: 22 mL/min/kg
[21]
  CL renal: 7.5 mL/min/kg
[22]
  CL renal: 0.29 mL/min/kg
[23]
  CL renal: 5.5 mL/min/kg
[24]
  IC50: 17 nM
Rattus norvegicus [25]
  Activity: 48%
Rattus norvegicus [26]
  Activity: Dose-Dependent Effect
Rattus norvegicus [27]
  Activity: Dose-Dependent Effect
[28]
  CLH(app): 0.99 µL/min
[29]
  IC50: > 50000 nM
Rattus norvegicus [30]
  Activity: Dose-Dependent Effect
Rattus norvegicus [31]
  Activity: Dose-Dependent Effect
Physchem [3]
  logD at 1 h: 1.4
In vitro
  Papp at 1.5 h: 2.9 ×10⁻⁶ cm/s

## CCOc1cccnc1Oc1cncc(-c2ncc(C(=O)NC3CCNCC3)cn2)c1
[4]
  IC50: 22000 nM
Physchem [2]
  pKa: 10.1
Physchem [3]
  logD at 1 h: -0.19
In vitro
  Papp at 1.5 h: 1.3 ×10⁻⁶ cm/s

## CCOc1cccnc1Oc1cncc(-c2ncc(C(=O)N[C@H]3CCNC3)cn2)c1
[4]
  IC50: 500 nM
[1]
  CLH(app): < 1.8 µL/min
Physchem [2]
  pKa: 9.2
Physchem [3]
  logD at 1 h: -0.9
In vitro
  Papp at 1.5 h: 0.39 ×10⁻⁶ cm/s

## CCOc1cccnc1Oc1cncc(-c2ncc(C(=O)N[C@H]3CCOC3)cn2)c1 [PF-06865571]
[10]
  bioavailability: 48%
[5]
  bioavailability: 31%
[11]
  half-life: 3.9 h
[32]
  Vd: 0.71 L/kg
[33]
  half-life: 1.4 h
[9]
  CL renal: < 0.1 mL/min/kg
[34]
  CL renal: < 0.1 mL/min/kg
[28]
  CLH(app): 3.9 µL/min
Physchem [3]
  logD at 1 h: 1.9
In vitro
  Papp at 1.5 h: 19 ×10⁻⁶ cm/s

## CCOc1cccnc1Oc1cncc(-c2ncc(C(=O)N[C@H]3CC[C@@H](C(F)(F)F)NC3)cn2)c1 (relative stereo)
[4]
  IC50: 4.4 nM
[1]
  CLH(app): 38 µL/min
Physchem [2]
  pKa: 4.5
Physchem [3]
  logD at 1 h: 2.8
In vitro
  Papp at 1.5 h: 30 ×10⁻⁶ cm/s

## CCOc1cccnc1Oc1cncc(-c2ncc(C(=O)N[C@H]3CNC[C@H](F)C3)cn2)c1
[1]
  CLH(app): < 1.9 µL/min
Physchem [3]
  logD at 1 h: 1.3
In vitro
  Papp at 1.5 h: 2.5 ×10⁻⁶ cm/s

— ChEMBL document CHEMBL5370625, “Design of Next-Generation DGAT2 Inhibitor PF-07202954 with Longer Predicted Half-Life” (ACS Med Chem Lett, 2023)
